{"source": "patent US9855265B2", "about": "“Methods for treating cancer with TrkA receptor tyrosine kinase antagonists” (VM Oncology LLC, priority 2014, dated 2018)", "key": {"PKD2/PRKD2": {"target": "PKD2/PRKD2 (Homo sapiens, UniProt Q9BZL6)", "sequence (Q9BZL6 whole entry)": "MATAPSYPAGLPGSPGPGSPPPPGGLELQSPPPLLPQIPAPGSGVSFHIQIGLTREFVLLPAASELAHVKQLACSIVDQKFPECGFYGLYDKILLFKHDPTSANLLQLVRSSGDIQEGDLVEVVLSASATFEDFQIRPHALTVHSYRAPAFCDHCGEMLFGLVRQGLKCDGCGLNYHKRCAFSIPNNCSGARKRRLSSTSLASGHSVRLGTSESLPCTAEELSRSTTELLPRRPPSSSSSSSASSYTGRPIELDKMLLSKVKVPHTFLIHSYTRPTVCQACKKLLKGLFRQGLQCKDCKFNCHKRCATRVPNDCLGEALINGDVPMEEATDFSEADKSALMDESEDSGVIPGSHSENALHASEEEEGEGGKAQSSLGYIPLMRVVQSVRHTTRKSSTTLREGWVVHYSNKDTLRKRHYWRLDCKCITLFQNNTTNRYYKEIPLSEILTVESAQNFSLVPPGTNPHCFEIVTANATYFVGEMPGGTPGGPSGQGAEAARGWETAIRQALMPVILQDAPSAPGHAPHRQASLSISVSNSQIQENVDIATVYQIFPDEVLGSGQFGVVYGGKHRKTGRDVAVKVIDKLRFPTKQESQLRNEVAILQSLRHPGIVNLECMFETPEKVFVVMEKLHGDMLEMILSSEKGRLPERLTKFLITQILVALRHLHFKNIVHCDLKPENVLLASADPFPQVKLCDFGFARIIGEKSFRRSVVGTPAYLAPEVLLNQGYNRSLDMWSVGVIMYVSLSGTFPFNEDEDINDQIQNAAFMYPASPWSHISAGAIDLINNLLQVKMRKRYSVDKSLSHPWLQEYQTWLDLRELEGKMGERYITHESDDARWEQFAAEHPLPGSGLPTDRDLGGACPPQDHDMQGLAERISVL", "experiment": "radiometric kinase assay, other kinases: PKD2/PRKD2", "assay_type": "biochemical", "conditions": "duplicate", "procedure": "(§1) Compound inhibition in a radiometric based mixed micelle assay: In a final reaction volume of 25 μL, TrkA (h) ([…]) is incubated with the kinase reaction buffer (20 mM HEPES (pH 7.5), 10 mM MgCl2, 1 mM EGTA, 0.02% Brij 35, 0.02 mg/ml BSA, 0.1 mM Na3VO4, 2 mM DTT, 1% DMSO), 0.2 mg/ml substrate PolyEY(4:1) and […], and [^33P-ATP](specific activity approx. 500 cpm/pmol, concentration as required). The reaction is initiated by the addition of the MgATP mix. After incubation for at least 40 minutes at room temperature, the reaction is stopped by the addition of 5 μL of a 3% phosphoric acid solution. 10 μL of the reaction is then spotted onto a P30 filtermat and washed three times for 5 minutes in 75 mM phosphoric acid and once in methanol prior to drying and scintillation counting. TrkA: Recombinant Human Cytoplasmic Domain (amino acids 441-796), Histidine-tagged, expressed in insect cells. Activated in vitro via auto-phosphorylation. Mw=42.8 kDa. Substrates for kinases: poly(EY) for TRKA; poly(EY)(4:1) with 2 mM MnCl2, average Mw=16 kDa Standard conditions (unless otherwise specified): 30 nM TRKA, 0.2 mg/ml poly(EY)+2 mM MnCl2, and 10 μM ([γ-^33P]) ATP. Using the similar assay condition with other kinases of recombinant human cytoplasmic domain, the activities of other kinases could be also measured."}, "ALK5/TGFB-R1": {"target": "T1, ALK5/TGFB-R1 (Homo sapiens, UniProt P36897)", "T1 construct": "other kinases of recombinant human cytoplasmic domain", "T1 sequence (P36897 148-503 limits assumed)": "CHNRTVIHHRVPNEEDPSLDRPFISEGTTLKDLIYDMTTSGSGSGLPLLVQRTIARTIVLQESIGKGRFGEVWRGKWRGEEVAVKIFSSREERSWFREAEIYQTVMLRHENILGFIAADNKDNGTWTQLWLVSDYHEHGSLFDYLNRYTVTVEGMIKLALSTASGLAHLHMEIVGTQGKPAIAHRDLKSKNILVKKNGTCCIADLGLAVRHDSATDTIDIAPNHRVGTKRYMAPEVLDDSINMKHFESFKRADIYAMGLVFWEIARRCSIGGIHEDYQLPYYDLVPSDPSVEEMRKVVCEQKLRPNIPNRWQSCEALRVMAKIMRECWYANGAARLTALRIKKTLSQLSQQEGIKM", "experiment": "radiometric kinase assay, other kinases: ALK5/TGFB-R1", "assay_type": "biochemical", "conditions": "duplicate", "procedure": "as §1"}, "CDK2/cyclinE": {"target": "CDK2/cyclinE (Homo sapiens, UniProt P24941)", "experiment": "radiometric kinase assay, other kinases: CDK2/cyclinE", "assay_type": "biochemical", "conditions": "duplicate", "procedure": "as §1"}, "FLT1": {"target": "T2, FLT1 (Homo sapiens, UniProt P17948)", "T2 construct": "other kinases of recombinant human cytoplasmic domain", "T2 sequence (P17948 781-1338 limits assumed)": "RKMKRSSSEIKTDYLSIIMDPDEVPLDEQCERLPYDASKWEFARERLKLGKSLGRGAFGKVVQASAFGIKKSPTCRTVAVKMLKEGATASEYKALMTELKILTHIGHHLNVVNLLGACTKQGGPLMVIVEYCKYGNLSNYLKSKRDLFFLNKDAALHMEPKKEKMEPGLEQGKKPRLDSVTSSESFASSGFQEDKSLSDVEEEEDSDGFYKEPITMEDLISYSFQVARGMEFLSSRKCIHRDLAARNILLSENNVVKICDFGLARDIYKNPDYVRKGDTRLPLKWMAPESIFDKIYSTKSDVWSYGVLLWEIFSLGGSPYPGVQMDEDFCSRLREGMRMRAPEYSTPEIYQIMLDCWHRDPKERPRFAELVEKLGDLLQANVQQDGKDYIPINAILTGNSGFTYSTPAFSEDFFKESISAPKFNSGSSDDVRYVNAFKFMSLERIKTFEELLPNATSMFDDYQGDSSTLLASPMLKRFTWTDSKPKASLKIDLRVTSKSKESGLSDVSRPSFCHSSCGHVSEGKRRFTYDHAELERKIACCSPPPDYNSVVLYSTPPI", "experiment": "radiometric kinase assay, other kinases: FLT1", "assay_type": "biochemical", "conditions": "duplicate", "procedure": "as §1"}, "[1]": {"experiment": "Pharmacokinetics and bioavailability in CD-1 mice", "conditions": "in vivo", "procedure": "Pharmacokinetic and bioavailabilities after oral and intraperitoneal (i.p.) treatment bioavailability in CD-1 mice. Pharmacokinetics and bioavailability of after oral and i.p. treatment in CD-1 mice (n=4 per dose group) are determined."}, "c-MET": {"target": "T3, c-MET (Homo sapiens, UniProt P08581)", "T3 construct": "other kinases of recombinant human cytoplasmic domain", "T3 sequence (P08581 956-1390 limits assumed)": "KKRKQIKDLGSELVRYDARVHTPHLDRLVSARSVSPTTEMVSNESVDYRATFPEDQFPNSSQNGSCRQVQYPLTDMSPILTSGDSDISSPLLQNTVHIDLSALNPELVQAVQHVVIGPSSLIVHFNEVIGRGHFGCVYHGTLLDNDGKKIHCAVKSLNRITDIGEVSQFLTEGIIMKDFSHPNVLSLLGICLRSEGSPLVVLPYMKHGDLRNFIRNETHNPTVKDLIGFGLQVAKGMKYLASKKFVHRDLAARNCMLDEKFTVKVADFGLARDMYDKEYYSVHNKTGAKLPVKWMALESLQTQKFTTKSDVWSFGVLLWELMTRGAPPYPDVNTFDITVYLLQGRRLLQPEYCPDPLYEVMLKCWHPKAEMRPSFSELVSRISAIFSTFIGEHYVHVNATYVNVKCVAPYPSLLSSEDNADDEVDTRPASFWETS", "experiment": "radiometric kinase assay, other kinases: c-MET", "assay_type": "biochemical", "conditions": "duplicate", "procedure": "as §1"}, "BMX": {"target": "BMX (Homo sapiens, UniProt P51813)", "sequence (P51813 whole entry)": "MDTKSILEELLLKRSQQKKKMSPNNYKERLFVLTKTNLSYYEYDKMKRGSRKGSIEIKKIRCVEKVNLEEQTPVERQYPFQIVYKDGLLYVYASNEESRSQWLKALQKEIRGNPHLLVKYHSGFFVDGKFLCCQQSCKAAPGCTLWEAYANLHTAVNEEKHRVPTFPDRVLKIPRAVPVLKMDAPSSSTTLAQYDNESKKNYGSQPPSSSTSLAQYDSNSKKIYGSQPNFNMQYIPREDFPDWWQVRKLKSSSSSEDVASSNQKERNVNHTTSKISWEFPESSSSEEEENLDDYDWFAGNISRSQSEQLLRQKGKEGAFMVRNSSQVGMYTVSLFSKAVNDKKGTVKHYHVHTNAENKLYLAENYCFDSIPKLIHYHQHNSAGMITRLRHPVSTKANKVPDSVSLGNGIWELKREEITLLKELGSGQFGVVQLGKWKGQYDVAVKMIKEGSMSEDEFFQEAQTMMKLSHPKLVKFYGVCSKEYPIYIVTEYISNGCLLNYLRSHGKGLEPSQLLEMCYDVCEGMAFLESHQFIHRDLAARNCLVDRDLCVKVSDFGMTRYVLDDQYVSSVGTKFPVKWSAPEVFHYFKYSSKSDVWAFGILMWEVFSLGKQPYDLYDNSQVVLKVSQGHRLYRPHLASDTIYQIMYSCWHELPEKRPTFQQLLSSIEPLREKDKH", "experiment": "radiometric kinase assay, other kinases: BMX", "assay_type": "biochemical", "conditions": "duplicate", "procedure": "as §1"}, "FGFR1": {"target": "T4, FGFR1 (Homo sapiens, UniProt P11362)", "T4 construct": "other kinases of recombinant human cytoplasmic domain", "T4 sequence (P11362 398-822 limits assumed)": "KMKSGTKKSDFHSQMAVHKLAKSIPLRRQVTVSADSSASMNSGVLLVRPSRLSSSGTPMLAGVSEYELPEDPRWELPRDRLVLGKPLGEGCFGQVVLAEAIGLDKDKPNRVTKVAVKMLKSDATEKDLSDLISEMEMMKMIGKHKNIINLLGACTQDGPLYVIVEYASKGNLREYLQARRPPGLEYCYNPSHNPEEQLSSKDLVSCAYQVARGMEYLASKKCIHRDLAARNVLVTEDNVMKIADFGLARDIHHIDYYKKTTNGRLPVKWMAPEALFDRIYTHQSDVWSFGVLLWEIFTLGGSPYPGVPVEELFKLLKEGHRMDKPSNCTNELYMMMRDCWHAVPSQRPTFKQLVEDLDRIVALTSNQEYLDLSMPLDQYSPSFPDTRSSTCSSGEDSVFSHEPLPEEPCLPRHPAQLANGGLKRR", "experiment": "radiometric kinase assay, other kinases: FGFR1", "assay_type": "biochemical", "conditions": "duplicate", "procedure": "as §1"}}, "note": "Like-named read-outs stand apart in the source and are kept apart here."}
{"compound": "Nc1c(N2CCN(C3CCCCC3)CC2)cc(Nc2ccc(C(=O)O)cc2)c2c1C(=O)c1ccccc1C2=O", "note": "[Compound 12, 4-{[4-amino-3-(4-cyclohexylpiperazin-1-yl)-9,10-dioxo-9,10-dihydroanthracen-1-yl]amino}benzoic acid]", "values": [{"measurement": "IC50", "setting": "PKD2/PRKD2", "result": "> 10", "unit": "µM"}, {"measurement": "IC50", "setting": "ALK5/TGFB-R1", "result": "> 10", "unit": "µM"}, {"measurement": "IC50", "setting": "CDK2/cyclinE", "result": "> 10", "unit": "µM"}, {"measurement": "IC50", "setting": "FLT1", "result": "> 10", "unit": "µM"}, {"measurement": "half-life", "setting": "[1]; CD-1, mouse, ip, 50 mg/kg", "result": "~210", "unit": "min"}, {"measurement": "half-life", "setting": "[1]; CD-1, mouse, iv", "result": "~60", "unit": "min"}, {"measurement": "bioavailability", "setting": "[1]; CD-1, mouse, po, 50 mg/kg", "result": "~100", "unit": "%"}, {"measurement": "half-life", "setting": "[1]; CD-1, mouse, po, 50 mg/kg", "result": "~270", "unit": "min"}, {"measurement": "bioavailability", "setting": "[1]; mouse, ip, CD-1 mice, 50 mg/kg i.p. dosing, read-out: i.p. bioavailability", "result": "~100", "unit": "%"}, {"measurement": "IC50", "setting": "c-MET", "result": "> 10", "unit": "µM"}, {"measurement": "IC50", "setting": "BMX", "result": "> 10", "unit": "µM"}, {"measurement": "IC50", "setting": "FGFR1", "result": "> 10", "unit": "µM"}]}
